In PMC10855164, “Ligand-Based Design of Selective Peptidomimetic uPA and TMPRSS2 Inhibitors with Arg Bioisosteres” (International Journal of Molecular Sciences, 2024):
“And” between values parts separate entries of the source, which are not always exact repeats. Identical values can stand only once.

Experiments:
Assay type in all cases: biochemical
[1] = target: T1, uPA (Homo sapiens, UniProt P00749); experiment: fluorometric enzyme inhibition assay, uPA (Z-Gly-Gly-Arg-AMC); conditions: for Ki / Ki uPA: from IC50 by Cheng-Prusoff, n.a. = not active, <80% inhibition at 20 µM; for Selectivity index [SI] uPA: quotient Ki uPA / Ki TMPRSS2
T1 construct: purchased Sigma Aldrich
Method: (§1) The inhibitory activity of the synthesized compounds towards the respective main- and off-target proteases was measured via fluorometric and colorimetric assays. Thus, fluorogenic AMC- or colorimetric pNA-based substrates with a peptide sequence suitable for the tested protease were utilized (see Supplementary Figure S2). At first, the compounds were screened against […] proteases (uPA, TMPRSS2, matriptase, tPA, thrombin, factor Xa) at 20 µM, and a cut-off value of 80% inhibition at this concentration was set, for the differentiation between nonactive (n.a.) and active inhibitors. Due to the reversible inhibition mechanism of the ketobenzothiazole derivates, the IC50 values were determined with Graphpad Prism 9, and afterwards converted to the corresponding Ki values for an adequate comparison between the inhibitory activities of the compounds toward all tested proteases. The Ki values were calculated using the Cheng–Prusoff equation [43].
(§2) Fluorometric inhibition assays
(§3) The inhibitory activities of the compounds against the proteases were determined by enzyme inhibition assays with fluorogenic or colorimetry-based substrates. The fluorescence, caused by cleaved AMC from the fluorogenic substrates (uPA, matriptase, TMPRSS2, thrombin), was measured in white flat-bottom 96-well plates from Greiner Bio-One using a Tecan Infinite F200 Pro plate reader. The absorption, caused by cleaved pNA from colorimetric substrates (factor Xa and tPA), was measured in transparent flat-bottom 96-well plates from Greiner Bio-One using a Tecan Spark 10M plate reader. All measurements with the main-target proteases (uPA and TMRPSS2) were performed as triplicates and with the off-target proteases (matriptase, factor Xa, tPA, thrombin) as duplicates. The substrates and the compounds were prepared as stock solutions in DMSO. Each well contained a total volume of 200 µL, consisting of 185 µL buffer, 5 µL inhibitor in DMSO or pure DMSO as negative control, 5 µL substrate in DMSO and 5 µL enzyme solution in buffer. Dilution series were prepared for the determination of the inhibition constants. The fluorescence signal and absorbance were measured every 30 s for 10 min at 25 or 37 °C with the corresponding excitation/emission (λex = 380 nm / λem = 460 nm) and absorbance (λabs = 405 nm) wavelengths, depending on the targeted protease. IC50 values for the reversible inhibitors were calculated with Graphpad Prism 9 by fitting the remaining enzymatic activity to the four parameter IC50 equation with Y [%] as the residual enzyme activity , Ymax as the maximum value of the dose response curve at inhibitor concentrations [I] = 0 µM, Ymin as the minimum value at high inhibitor concentrations and s as the hill coefficient.[1] The fluorescence progress curves and sigmoidal dose-response curve for inhibition of uPa by compound 38 is shown exemplary in Figure S2.
Figure S2: (left) Fluorescence progress curves for inhibition of uPa by cpd. 38. (right) Plot showing the respective IC50 value […]
(§4) Due to the dependence of the IC50 value on the substrate affinity and concentration, the Ki values were calculated with the Cheng-Prusoff equation, using the final substrate concentration [S] and the Michaelis-Menten constant KM, (2) for appropriate comparison of the inhibitory activities to the other enzymes and inhibitors.[1]
(§5) KM values were determined by fitting to the Michaelis-Menten equation using Graphpad Prism 9 with v [ΔF/min] as the substrate hydrolysis rate, vmax as the maximum slope of the dose-response curve, and the substrate [S] concentration.[1] The different substrates were serially diluted in DMSO. The measurement was done in analogy to the determination of the inhibitory activity, but with 5 µL pure DMSO instead of inhibitor solution. The fluorescence progress curves and Michaelis-Menten curve of the specific substrate of uPA is shown exemplarily […]
Figure S3: (left) Fluorescence progress curves of cleavage of Z-Gly-Gly-Arg-AMC by uPA. (right) Michaelis-Menten curve […]

[2] = target: T2, TMPRSS2 (Homo sapiens, UniProt O15393); experiment: fluorometric enzyme inhibition assay, TMPRSS2 (Boc-Gln-Ala-Arg-AMC); conditions: for Ki / Ki TMPRSS2: from IC50 by Cheng-Prusoff, n.a. = not active, <80% inhibition at 20 µM; for Selectivity index [SI] TMPRSS2: quotient Ki TMPRSS2 / Ki uPA
T2 construct: purchased Cusabio
T2 sequence (O15393 whole entry): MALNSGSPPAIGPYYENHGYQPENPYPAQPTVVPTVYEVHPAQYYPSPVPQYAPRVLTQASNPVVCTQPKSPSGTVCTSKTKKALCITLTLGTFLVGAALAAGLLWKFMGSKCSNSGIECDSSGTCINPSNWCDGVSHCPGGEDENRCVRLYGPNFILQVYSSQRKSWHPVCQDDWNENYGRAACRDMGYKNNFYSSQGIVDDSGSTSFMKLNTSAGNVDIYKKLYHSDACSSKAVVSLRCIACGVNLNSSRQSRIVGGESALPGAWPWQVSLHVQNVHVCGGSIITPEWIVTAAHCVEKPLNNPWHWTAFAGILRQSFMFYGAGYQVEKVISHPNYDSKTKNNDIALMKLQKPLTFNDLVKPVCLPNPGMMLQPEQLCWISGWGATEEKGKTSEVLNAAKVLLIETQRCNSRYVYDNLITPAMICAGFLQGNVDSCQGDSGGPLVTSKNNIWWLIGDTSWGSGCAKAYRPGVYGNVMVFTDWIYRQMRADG
Method: as §1, §2
as §3, with “S2. […]” for “S2.”
as §4
as §5, with “solution.” for “solution. The fluorescence progress curves and Michaelis-Menten curve of the specific substrate of uPA is shown exemplarily”
(§6) The following buffers and substrates were used for the respective assays: uPA (50 mM Tris HCl pH = 7.9, 150 mM […]
(§7) TMPRSS2 (25 mM Tris HCl pH = 8.0, 150 mM NaCl, 5 mM CaCl2, 0.001% TX-100, 100 µM Boc-Gln-Ala-Arg-AMC (KM: 68.63 ± 6.64 µM), 25 °C, 3 nM TMPRSS2)[3]; matriptase (50 mM Tris HCl pH = 8.0, 150 mM NaCl, 5 mM CaCl2, […]

[3] = target: T3, matriptase (Homo sapiens, UniProt Q9Y5Y6); experiment: fluorometric enzyme inhibition assay, matriptase (Boc-Leu-Arg-Arg-AMC); conditions: for Ki / Ki Matriptase: from IC50 by Cheng-Prusoff, n.a. = not active, <80% inhibition at 20 µM
T3 construct: catalytic domain of matriptase (uniport: Q9Y5Y6 aa 596–855); hexa-histidine (N); made in house; host or cells: Escherichia coli BL21 Gold (DE3)
T3 sequence (Q9Y5Y6 596-855): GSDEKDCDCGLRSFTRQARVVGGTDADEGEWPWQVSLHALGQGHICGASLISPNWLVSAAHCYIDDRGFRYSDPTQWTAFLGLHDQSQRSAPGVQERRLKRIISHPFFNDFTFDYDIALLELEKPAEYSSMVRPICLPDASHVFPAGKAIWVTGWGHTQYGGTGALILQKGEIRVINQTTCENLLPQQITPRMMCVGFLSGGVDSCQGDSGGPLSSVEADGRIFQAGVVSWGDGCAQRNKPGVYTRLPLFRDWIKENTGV
Method: as §1, §2
as §3, with “S2. […]” for “S2.”
as §4
as §5, with “solution.” for “solution. The fluorescence progress curves and Michaelis-Menten curve of the specific substrate of uPA is shown exemplarily”
as §6, §7

[4] = target: T4, tPA (Homo sapiens, UniProt P00750); experiment: colorimetric enzyme inhibition assay, tPA (N-methylsulfonyl-D-Phe-Gly-Arg-pNA); conditions: from IC50 by Cheng-Prusoff; n.a. = not active, <80% inhibition at 20 µM
T4 construct: purchased Sigma Aldrich
T4 sequence (P00750 36-562): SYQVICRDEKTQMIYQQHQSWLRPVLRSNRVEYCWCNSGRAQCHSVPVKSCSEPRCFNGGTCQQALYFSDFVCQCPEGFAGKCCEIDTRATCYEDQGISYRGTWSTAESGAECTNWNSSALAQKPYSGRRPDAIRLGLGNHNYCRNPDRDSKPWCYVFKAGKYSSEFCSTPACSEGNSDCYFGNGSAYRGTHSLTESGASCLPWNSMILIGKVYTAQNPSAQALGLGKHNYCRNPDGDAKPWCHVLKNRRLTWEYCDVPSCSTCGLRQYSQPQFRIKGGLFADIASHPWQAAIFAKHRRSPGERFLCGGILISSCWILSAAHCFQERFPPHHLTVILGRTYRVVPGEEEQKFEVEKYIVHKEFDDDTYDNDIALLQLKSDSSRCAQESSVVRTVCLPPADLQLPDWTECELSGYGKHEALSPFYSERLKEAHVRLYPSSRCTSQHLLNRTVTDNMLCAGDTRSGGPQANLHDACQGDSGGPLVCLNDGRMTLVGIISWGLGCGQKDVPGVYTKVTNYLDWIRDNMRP
Method: as §1, §2
as §3, with “S2. […]” for “S2.”
as §4
KM values were determined by fitting to the Michaelis-Menten equation using Graphpad Prism 9 with v [ΔF/min] as the substrate hydrolysis rate, vmax as the maximum slope of the dose-response curve, and the substrate [S] concentration.[1] The different substrates were serially diluted in DMSO. […]

[5] = target: T5, thrombin (Homo sapiens, UniProt P00734); experiment: fluorometric enzyme inhibition assay, thrombin (Z-Gly-Gly-Arg-AMC); conditions: for Ki / Ki Thrombin: from IC50 by Cheng-Prusoff, n.a. = not active, <80% inhibition at 20 µM; for Selectivity index [SI] Thrombin: quotient Ki thrombin / Ki uPA
T5 construct: purchased Bio-techne
Method: as §1, §2
as §3, with “S2. […]” for “S2.”
as §4
as §5, with “solution.” for “solution. The fluorescence progress curves and Michaelis-Menten curve of the specific substrate of uPA is shown exemplarily”
as §6, §7

[6] = target: T6, factor Xa (Homo sapiens, UniProt P00742); experiment: colorimetric enzyme inhibition assay, factor Xa (Z-D-Arg-Gly-Arg-pNA); conditions: for Ki / Ki Factor Xa: from IC50 by Cheng-Prusoff, n.a. = not active, <80% inhibition at 20 µM; for Selectivity index [SI] Factor Xa: quotient Ki factor Xa / Ki uPA
T6 construct: purchased Bio-techne
T6 sequence (P00742 235-488 limits assumed): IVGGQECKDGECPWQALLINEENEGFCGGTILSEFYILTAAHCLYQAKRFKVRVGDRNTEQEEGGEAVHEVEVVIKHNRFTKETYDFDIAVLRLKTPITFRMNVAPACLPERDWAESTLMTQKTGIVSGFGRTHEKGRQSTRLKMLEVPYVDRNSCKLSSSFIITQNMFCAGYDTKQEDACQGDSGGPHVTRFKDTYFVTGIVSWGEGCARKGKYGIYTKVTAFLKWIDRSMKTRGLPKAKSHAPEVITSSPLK
T6 sequence (P00742 41-179 partner limits assumed): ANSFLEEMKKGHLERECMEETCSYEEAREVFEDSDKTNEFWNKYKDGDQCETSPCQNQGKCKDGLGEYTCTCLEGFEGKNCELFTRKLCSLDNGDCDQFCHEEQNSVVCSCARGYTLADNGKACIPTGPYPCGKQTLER
Method: as §1, §2
as §3, with “S2. […]” for “S2.”
as §4
as §5, with “solution.” for “solution. The fluorescence progress curves and Michaelis-Menten curve of the specific substrate of uPA is shown exemplarily”
as §6, §7

[7] = quotient Ki matriptase / Ki uPA
[8] = quotient Ki matriptase / Ki TMPRSS2

Ki [1] [nM]	Ki [2] [nM]	Selectivity index [SI] TMPRSS2 [2]	Ki [3]	Selectivity index [SI] Matriptase [3, 7]	Ki tPA [4]	Selectivity index [SI] uPA [1]	Selectivity index [SI] Matriptase [3, 8]	SMILES	further results
141 ± 28	5 ± 1	0.04	32 ± 14 nM	0.2	did not show inhibition			CC(=O)NCC(=O)NC(C(=O)NC(C)C(=O)NC(CCCNC(=N)N)C(=O)c1nc2ccccc2s1)C(C)O [Compound 14a, Ac-Gly-L-Thr-L-Ala-L-Arg-kbt]	Ki [5]: 4390 ± 1480 nM; Selectivity index [SI] Thrombin [5]: 31; Ki [6]: 3360 ± 320 nM
388 ± 95								CC(=O)NCC(=O)NC(C(=O)NC(C)C(=O)NC(CCCNC(=N)N)C(=O)c1nc2ccc(F)cc2s1)C(C)O (stereo not shown) [Compound 14b]	
82 ± 6	9 ± 1	0.1	59 ± 9 nM	0.7				CC(=O)NCC(=O)NC(C(=O)NC(C)C(=O)NC(CCCNC(=N)N)C(=O)c1nc2ccc(Cl)cc2s1)C(C)O (stereo not shown) [Compound 14c]	Ki [5]: 456 ± 72 nM; Selectivity index [SI] Thrombin [5]: 5; Ki [6]: 2450 ± 99 nM; Selectivity index [SI] Factor Xa [6]: 30
60 ± 15	6 ± 1	0.1	38 ± 2 nM	0.6				CC(=O)NCC(=O)NC(C(=O)NC(C)C(=O)NC(CCCNC(=N)N)C(=O)c1nc2ccc(Br)cc2s1)C(C)O (stereo not shown) [Compound 14d]	Ki [5]: 450 ± 69 nM; Selectivity index [SI] Thrombin [5]: 8; Ki [6]: 2850 ± 844 nM; Selectivity index [SI] Factor Xa [6]: 47
178 ± 19								COc1ccc2nc(C(=O)C(CCCNC(=N)N)NC(=O)C(C)NC(=O)C(NC(=O)CNC(C)=O)C(C)O)sc2c1 (stereo not shown) [Compound 14e]	

Continued, compound first:

SMILES	Ki [1] [nM]	Ki [2] [nM]	Selectivity index [SI] TMPRSS2 [2]	Ki [3]	Selectivity index [SI] Matriptase [3, 7]	Ki tPA [4]	Selectivity index [SI] uPA [1]	Selectivity index [SI] Matriptase [3, 8]	further results
CC(=O)NCC(=O)NC(C(=O)NC(C)C(=O)NC(CCCNC(=N)N)C(=O)c1nc2c(s1)CCCC2)C(C)O (stereo not shown) [Compound 15]	435 ± 33								
CC(=O)NCC(=O)NC(C(=O)NC(C)C(=O)NC(CCCCNC(=N)N)C(=O)c1nc2ccccc2s1)C(C)O (stereo not shown) [Compound 20]						did not show inhibition			Ki uPA [1]: did not show inhibition; Ki TMPRSS2 [2]: did not show inhibition; Ki Matriptase [3]: did not show inhibition; Ki Thrombin [5]: did not show inhibition; Ki Factor Xa [6]: did not show inhibition
CC(=O)NCC(=O)NC(C(=O)NC(C)C(=O)NC(Cc1ccc(NC(=N)N)cc1)C(=O)c1nc2ccccc2s1)C(C)O (stereo not shown) [Compound 29]	29 ± 2	10 ± 4	0.3	132 nM and 133 nM	4	did not inhibit			Ki Thrombin [5]: did not inhibit; Ki Factor Xa [6]: did not inhibit
CC(=O)N[C@@H](CC(N)=O)C(=O)N1CCC[C@H]1C(=O)N[C@@H](Cc1ccc(NC(=N)N)cc1)C(=O)c1nc2ccccc2s1 [Compound 30]	479 ± 17	5 ± 1		60 ± 8 nM			96	12	
CC(=O)N[C@@H](CC(N)=O)C(=O)N[C@@H](Cc1ccccc1)C(=O)N[C@@H](Cc1ccc(NC(=N)N)cc1)C(=O)c1nc2ccccc2s1 [Compound 31]	3570 ± 421	0.4 ± 0.1		252 ± 67 nM			> 5000	630	
CC(=O)N[C@@H](CC(N)=O)C(=O)N[C@@H](CC1CCCCC1)C(=O)N[C@@H](Cc1ccc(NC(=N)N)cc1)C(=O)c1nc2ccccc2s1 [Compound 32]	2690 ± 217	34 ± 4		3330 ± 1140 nM			79	98	
CC(=O)N[C@@H](CC(N)=O)C(=O)N1CCC[C@H]1C(=O)N[C@@H](CC1CCC(NC(=N)N)CC1)C(=O)c1nc2ccccc2s1 (stereo partly shown) [Compound 39]	936 ± 100	44 ± 7		1200 ± 181 nM			21	27	
CC(=O)NCC(=O)N[C@H](C(=O)N[C@@H](C)C(=O)N[C@@H](Cc1cccc(NC(=N)N)c1)C(=O)c1nc2ccccc2s1)[C@H](C)O [Compound 45]						did not show inhibition			Ki uPA [1]: did not show inhibition; Ki TMPRSS2 [2]: did not show inhibition; Ki Matriptase [3]: did not show inhibition; Ki Thrombin [5]: did not show inhibition; Ki Factor Xa [6]: did not show inhibition
